Measurements taken from PubChem BioAssay (NCI).
Values joined by “and” are separate entries in the source; they are usually repeats but may differ in a detail not shown here. Identical values can stand only once.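 Five concentrations, 48 hours, 96-well plates. GI50 = concentration required for 50% inhibition of growth. The concentration for full growth arrest is given as TGI.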

Tests used:
Test in all cases: NCI-60 cell line screen, 48 h
SK-OV-3 ovarian = system: SK-OV-3 ovarian
SF-268 CNS = system: SF-268 CNS
DU-145 prostate = system: DU-145 prostate
HT29 colon = system: HT29 colon
MDA-MB-435 = system: MDA-MB-435
COLO 205 colon = system: COLO 205 colon
NCI-H23 lung = system: NCI-H23 lung
HOP-62 NSCLC = system: HOP-62 NSCLC
NCI-H460 lung = system: NCI-H460 lung
NCI/ADR-RES ovarian = system: NCI/ADR-RES ovarian

| SMILES | GI50 (SK-OV-3 ovarian) | TGI (SK-OV-3 ovarian) | GI50 (SF-268 CNS) | TGI (SF-268 CNS) | GI50 (DU-145 prostate) | TGI (DU-145 prostate) | GI50 (HT29 colon) [µM] | TGI (HT29 colon) [µM] | GI50 (MDA-MB-435) [µM] | TGI (MDA-MB-435) [µM] | GI50 (COLO 205 colon) [µM] | TGI (COLO 205 colon) [µM] | GI50 (NCI-H23 lung) | TGI (NCI-H23 lung) | GI50 (HOP-62 NSCLC) | TGI (HOP-62 NSCLC) | GI50 (NCI-H460 lung) | TGI (NCI-H460 lung) | GI50 (NCI/ADR-RES ovarian) [µM] | TGI (NCI/ADR-RES ovarian) [µM] |
| --- | --- | --- | --- | --- | --- | --- | --- | --- | --- | --- | --- | --- | --- | --- | --- | --- | --- | --- | --- | --- |
| O=C(c1ccccc1)c1ccccc1C(=O)c1ccccc1 | 50.3 µM | > 100 µM | 63.4 µM | > 100 µM | 88.1 µM | > 100 µM | 45.3 | > 100 | 28.7 | > 100 | 79.5 | > 100 | 34 µM | > 100 µM | > 100 µM | > 100 µM | 35.9 µM | > 100 µM | 27.4 | > 100 |
| O=C(O)c1ccc2cccnc2c1O | 1.7 µM | 4.89 µM | 0.999 µM | 98.5 µM | 0.828 µM | 42.3 µM | 2.43 | > 79 | 0.87 | 35.8 | 4.23 | 10.1 | 1.05 µM | 29.1 µM | 1.37 µM | 41.6 µM | 0.551 µM | 11.1 µM | 1.33 | 36.2 |
| Cc1nc2sc(C(=O)Nc3cccc(Cl)c3C)c(N)c2cc1C(C)O (stereo not given) | 0.382 µM | > 61 µM | 5.75 µM | > 82.2 µM | 0.329 µM | > 86.5 µM | 0.112 | 13.8 | 0.0288 | 0.101 | 0.257 | 7.04 | 0.567 µM | > 56.6 µM | 0.53 µM | > 100 µM | 0.237 µM | > 37.2 µM | 0.119 | > 61.3 |
| Cn1c(O)c(N=NC(N)=S)c2ccccc21 | 66.8 µM | > 100 µM | 62.8 µM | > 100 µM | 53.7 µM | > 100 µM | > 100 | > 100 | > 100 | > 100 | 94.9 | > 100 | > 100 µM | > 100 µM | 33.5 µM | > 100 µM | 33.9 µM | > 100 µM | 47.4 | > 100 |
| COc1cccc2ccc3c(c12)C(=O)OC31CCc2c(C)cccc21 (stereo not given) | – | > 46.4 µM | – | > 46.4 µM | – | > 100 µM | – | > 31.6 | – | > 100 | – | > 46.4 | – | > 46.4 µM | – | > 46.4 µM | – | > 31.6 µM | – | > 100 |
| Cc1[nH]n(-c2ccccc2)c(=O)c1C(=O)c1ccccc1 | > 25 µM | > 25 µM | > 25 µM | > 25 µM | > 25 µM | > 25 µM | > 25 | > 25 | > 25 | > 25 | > 25 | > 25 | > 25 µM | > 25 µM | > 25 µM | > 25 µM | > 19.5 µM | > 25 µM | > 23.8 | > 25 |
| COc1ccc(S(=O)(=O)n2c3ccccc3n3ncc(-c4nnc(C)o4)c23)cc1 | 0.598 µM | > 100 µM | 3.11 µM | > 74.1 µM | 0.916 µM | > 75.3 µM | 0.381 | > 100 | 0.339 | > 100 | 0.376 | 17.1 | 0.786 µM | 75.8 µM | 0.566 µM | > 85.5 µM | 0.425 µM | > 48.3 µM | 0.391 | > 48.1 |
| N#CC1CCc2c(c(-c3cn[nH]c3C(F)(F)F)nc3c(F)cc4[nH]ncc4c23)C1 (stereo not given) | 3.21 µM | 10.5 µM | 5.02 µM | 27.4 µM | 9.06 µM | 80.3 µM | 9.6 | > 100 | 4.43 | 41.1 | 4.23 | 16.1 | 5.36 µM | 28.4 µM | 6.09 µM | 33.7 µM | 11.8 µM | 38.8 µM | > 100 | > 100 |
| C=C1C(=O)O[C@H]2[C@H]1CC/C(COC(=O)/C=C/c1c[nH]c3ccccc13)=C\CC[C@@]1(C)O[C@@H]21 | 1.88 µM | 3.59 µM | 0.229 µM | 0.569 µM | 0.393 µM | 1.43 µM | 0.195 | 0.416 | 0.222 | 0.582 | 0.225 | 0.541 | 1.25 µM | 4.32 µM | 0.829 µM | 2.16 µM | 1.01 µM | 2.66 µM | 0.357 | 12.2 |
| O[C@H](CN1CC1)[C@@H](O)CN1CC1 | 4.91 µM | 29.9 µM | 2.6 µM | 30.8 µM | 3.25 µM | 26.8 µM | 10.2 | 26.6 | 10.5 | 29.8 | 12.4 | 25.5 | 3.24 µM | > 100 µM | 3.41 µM | 47.2 µM | 0.496 µM | 22.9 µM | 2.8 | 53.1 |
| CN1N=Nc2c(C(F)(F)F)nn(-c3ccccc3)c2N(C)C1=O | > 100 µM | > 100 µM | > 100 µM | > 100 µM | > 100 µM | > 100 µM | > 100 | > 100 | > 100 | > 100 | > 47.9 | > 70.4 | > 100 µM | > 100 µM | > 100 µM | > 100 µM | > 100 µM | > 100 µM | > 100 | > 100 |
| O=C(O)c1cc2c(c3ccsc13)-c1ccccc1CC2 | 85.1 µM | > 100 µM | 44 µM | > 100 µM | 44.2 µM | > 100 µM | 39.4 | > 100 | 42.7 | > 100 | 40.5 | > 100 | 30.1 µM | 79.5 µM | 31.8 µM | > 100 µM | 33.2 µM | > 100 µM | 33.7 | > 100 |
| CC(C)(F)C[C@H](N[C@@H](c1ccc(-c2ccc(S(C)(=O)=O)cc2)cc1)C(F)(F)F)C(=O)NC1(C#N)CC1 | 23 µM and 27.5 µM | 55 µM and 70.7 µM | 22 µM and 18.8 µM | 55 µM and 48.9 µM | 47.6 µM and 44.4 µM | 55 µM and > 100 µM | > 100 | > 100 | > 100 | > 100 | > 100 | > 100 | 28.5 µM and 39.9 µM | 55 µM and > 100 µM | 12.2 µM and 22.6 µM | 40.7 µM and 53.5 µM | 33.6 µM and 49.7 µM | 55 µM and > 100 µM | 34.1 | 55 |
| C=C1C[C@@H]2[C@H](CC[C@]3(C)C(=O)CC[C@@H]23)[C@@]2(C)C=CC(=O)C=C12 | 39.1 µM | > 100 µM | 57.1 µM | > 100 µM | > 65.8 µM | > 100 µM | 37.1 | > 100 | 26.3 | > 81.5 | 20.3 | 41 | 16.5 µM | 44.3 µM | 35.2 µM | > 83.1 µM | 22 µM | > 63.2 µM | 30.6 | > 92 |
| N#C/C(=C\c1cccnc1)c1nc2ccccc2o1 | > 100 µM | > 100 µM | > 100 µM | > 100 µM | > 100 µM | > 100 µM | > 100 | > 100 | > 100 | > 100 | > 100 | > 100 | > 100 µM | > 100 µM | > 100 µM | > 100 µM | > 100 µM | > 100 µM | > 100 | > 100 |
